In PubChem BioAssay (NCI):
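Cultured in 96-well plates, cells were exposed to test compound for 48 hours across five concentrations. TGI: concentration producing complete growth inhibition.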

How the values were obtained:
Assay in all cases: NCI tumour cell line growth inhibition, 48 h
MDA-MB-231 breast = tested on: MDA-MB-231 breast
RXF 393 renal = tested on: RXF 393 renal
MALME-3M melanoma = tested on: MALME-3M melanoma
NCI-H23 lung = tested on: NCI-H23 lung
NCI-H522 lung = tested on: NCI-H522 lung
UO-31 renal = tested on: UO-31 renal
SN12C renal = tested on: SN12C renal
KM12 colon = tested on: KM12 colon
SK-MEL-28 melanoma = tested on: SK-MEL-28 melanoma
OVCAR-4 ovarian = tested on: OVCAR-4 ovarian
786-0 renal = tested on: 786-0 renal
UACC-62 melanoma = tested on: UACC-62 melanoma

SMILES	TGI (MDA-MB-231 breast)	TGI (RXF 393 renal)	TGI (MALME-3M melanoma)	TGI (NCI-H23 lung)	TGI (NCI-H522 lung)	TGI (UO-31 renal)	TGI (SN12C renal)	TGI (KM12 colon)	TGI (SK-MEL-28 melanoma)	TGI (OVCAR-4 ovarian)	TGI (786-0 renal)	TGI (UACC-62 melanoma)
O=c1c2ccccc2[nH]c(=S)n1-c1ccc(N=Nc2cccc3c(O)cccc23)cc1	> 100 µM	> 100 µM	> 100 µM	> 100 µM	> 100 µM	> 100 µM	> 100 µM	> 100 µM	> 100 µM	> 100 µM	> 100 µM	68 µM
CC(C)(C)OC(=O)NCCCCC(NC(=O)OCc1ccccc1)C(N)=O (stereo not drawn)	> 100 µM	> 100 µM	> 100 µM	> 100 µM	> 100 µM	> 100 µM	> 100 µM	> 100 µM	> 100 µM	> 100 µM	> 100 µM	> 100 µM
O=c1[nH]c2nc3ccccc3c(=O)n2/c1=C/c1ccc(O)cc1	> 100 µM	> 100 µM	> 100 µM	> 100 µM	> 100 µM	> 100 µM	> 100 µM	> 100 µM	> 100 µM	> 100 µM	> 100 µM	> 100 µM
c1ccc(C[P+]2(c3ccccc3)c3ccccc3-c3ccccc32)cc1	> 100 µM	> 100 µM		> 100 µM	> 100 µM	> 100 µM	> 100 µM	> 100 µM	> 100 µM		> 100 µM	> 100 µM
COc1cc2oc(-c3ccc(O)cc3)c(OC3OC(C)C(O)C(O)C3O)c(=O)c2c(O)c1OC (stereo not drawn)	> 100 µM	> 100 µM	> 100 µM	> 100 µM	> 100 µM		> 100 µM	> 100 µM	> 100 µM	> 100 µM	> 100 µM	> 100 µM
CCOc1ccc(N/C(=C(/C(Cl)=C(/Cl)NCCN)[N+](=O)[O-])n2nnc3ccccc32)cc1	> 100 µM		27.6 µM	> 100 µM		> 100 µM	> 100 µM	> 100 µM	> 100 µM	> 100 µM	> 100 µM	> 100 µM
CCCCc1c(O)nc(Nc2nc3ccccc3[nH]2)[nH]c1=O	> 100 µM	> 100 µM	> 100 µM	> 100 µM	> 100 µM		> 100 µM	> 100 µM	> 100 µM	> 100 µM	> 100 µM	> 100 µM
